Measured values reported in US8546590B2, “Polar dyes” (Cepheid, priority 2005, dated 2013).

Tests used:
[1] = Degradation/deprotection of arsonate ester-protected dye in 25% aqueous ammonia (Method G, HPLC); type: physicochemical
Protocol: (§1) Measuring of Degradation/Deprotection Rate of Arsonate Esters-protected Dye.
(§2) A protected dye (1 mg) and Methyl Red dye (0.5 mg, internal standard, λmax 482 nm) were dissolved in MeOH (5 mL) and mixed with a buffer or 25% aqueous ammonia (45 mL). Samples (1 mL) were taken over a period of degradation. The samples were quickly placed under vacuum to remove ammonia and redissolved in MeOH or used directly for HPLC analysis in buffers in a range of pH 1.6 (0.1% trifluoroacetic acid)-7.5 (0.1 M triethylammonium acetate). HPLC analysis was performed on Phenomenex Gemini 5 um C18 110A column (250×4.6 mm) using 0-100% gradient of MeCN in 0.1M triethylammonium acetate (pH 7.5) buffer. The chromatogram was detected in a range 200-600 nm using Varian ProStar PDA detector. Calculations of the relative concentrations were performed based on peaks area at 520 nm. An internal standard gives a peak at 8.6 min (λmax 482 nm).
FIG. 12 illustrates an example of a typical kinetic curve corresponding to the base-induced deprotection of a bis-pinacol protected azodye.

[2] = Degradation/deprotection of arsonate ester-protected dye in aqueous buffers (Method G, HPLC); type: physicochemical; conditions: for stability in aqueous buffers: range of pH 1.6-7.5 in aqueous buffers
Protocol: as §1, §2

[3] = 25% aqueous ammonia, room temperature

SMILES: CN(C)c1ccc(N=Nc2ccc([As]34(OC(C)(C)C(C)(C)O3)OC(C)(C)C(C)(C)O4)cc2)cc1 [Example 11, [4-(4′-Dimethylaminophenylazo)phenyl]arsonic acid bis-pinacolate]
- stability / degradation in 25% aqueous ammonia ([1]; 25% aqueous ammonia): degrades
- Rate of degradation (τ1/2) [1, 3]: approximately 3 hr
- stability in aqueous buffers [2]: stable

SMILES: CN(C)c1ccc(N=Nc2ccc([As]3(=O)OC(C)(C)CC(C)(C)O3)cc2)cc1 [Example 12, [4-(4′-Dimethylaminophenylazo)phenyl]arsonic acid 2,4-dimethyl-2,4-pentanediol chelate]
- stability / degradation in 25% aqueous ammonia ([1]; 25% aqueous ammonia): degrades quickly
- Rate of full degradation (τ1/2) [1, 3]: approximately 15 min
- time after which practically full deprotection was observed [1, 3]: 4 h
- stability in aqueous buffers [2]: relatively stable

SMILES: CN(C)c1ccc(N=Nc2ccc([As]3(=O)OC(=O)C(C)(C)O3)cc2)cc1 (stereo not drawn) [Example 13, [4-(4′-Dimethylaminophenylazo)phenyl]arsonic acid, chelate with 2-hydroxy-isobutyric acid]
- degradation in acidic conditions ([2]; acidic conditions, aqueous buffers): degrades instantly
- time after which practically full deprotection was observed ([2]; buffer, room temperature, pH 7.5): 2 h
- degradation at pH 7.5 ([2]; pH 7.5 aqueous buffer): within minutes
- stability in aqueous buffers [2]: very unstable
- Rate of full degradation (τ1/2) ([2]; room temperature and pH 7.5 buffer): approximately 10 min

SMILES: CN(C)c1ccc(N=Nc2ccc([As]34(Oc5ccccc5O3)Oc3ccccc3O4)cc2)cc1 [Example 14, [4-(4′-Dimethylaminophenylazo)phenyl]arsonic acid bis-catechol chelate]
- stability / degradation in 25% aqueous ammonia ([1]; 25% aqueous ammonia): very stable
- degradation of the compound observed ([1]; over 3 days period, 25% aqueous ammonia at room temperature (and pH 1.6-7.5 buffers)): No degradation
- stability in aqueous buffers [2]: very stable
